Data set [1] in a line: in vivo. The conditions noted are these: female, CD-1, mouse, po, 10 mg/kg.
Data set [2] in a line: in vivo. The conditions noted are these: female, CD-1, mouse, po, 10 mg/kg. The source holds these as a separate data set.
A short description of data set [3]: in vivo. Particulars: female, CD-1, mouse, po, 10 mg/kg. This is another data set of the same source.
Data set [4] is described as follows: in vivo. The conditions noted are these: male, Sprague-Dawley, rat, plasma, iv, 1 mg/kg.
Data set [5] is described as follows: in vivo. The conditions noted are these: male, Sprague-Dawley, rat, po, 10 mg/kg.
Data set [6] can be described thus: in vivo. The conditions noted are these: male, Sprague-Dawley, rat, po, 10 mg/kg. The source holds these as a separate data set.
Data set [7] can be described thus: in vivo. Particulars: male, Sprague-Dawley, rat, po, 10 mg/kg. The source holds these as a separate data set.
The nature of data set [8]: in vivo. Particulars: male, Sprague-Dawley, rat, po, 10 mg/kg. The source holds these as a separate data set.
Data set [9] in a line: in vivo. Particulars: male, Sprague-Dawley, rat, po, 10 mg/kg. This is another data set of the same source.
Data set [10] is described as follows: in vivo. Particulars: male, Beagle, dog, plasma, iv, 1 mg/kg.
Data set [11] is described as follows: in vivo. Particulars: male, Beagle, dog, po, 5 mg/kg.
Data set [12] in a line: in vivo. The conditions noted are these: male, Beagle, dog, po, 5 mg/kg. This is another data set of the same source.
Data set [13] can be described thus: in vivo. The conditions noted are these: male, Beagle, dog, po, 5 mg/kg. The source holds these as a separate data set.
A short description of data set [14]: in vivo. Particulars: male, Beagle, dog, po, 5 mg/kg. The source holds these as a separate data set.
The nature of data set [15]: in vivo. The conditions noted are these: male, Beagle, dog, po, 5 mg/kg. The source holds these as a separate data set.
Data set [16] can be described thus: in vivo. The conditions noted are these: female, Balb/c, mouse, po, 10 mg/kg.
The nature of data set [17]: in vivo. The conditions noted are these: female, Balb/c, mouse, po, 10 mg/kg. The source holds these as a separate data set.
Data set [18] can be described thus: in vivo. The conditions noted are these: female, Balb/c, mouse, po, 10 mg/kg. This is another data set of the same source.
The next data set can be described thus: in vitro. Particulars: human, plasma.
Data set [19] can be described thus: physchem. Particulars: glutathione (GSH) solution, 0.1 uM GSH.
Data set [20] is described as follows: physchem. The conditions noted are these: glutathione (GSH) solution, 1 uM GSH.
Data set [21] is described as follows: in vivo. Particulars: female, CD-1, mouse, plasma, iv, 1 mg/kg.
Data set [22] can be described thus: in vivo. Particulars: female, CD-1, mouse, po, 10 mg/kg. This is another data set of the same source.
The nature of data set [23]: in vivo. The conditions noted are these: female, CD-1, mouse, po, 10 mg/kg. The source holds these as a separate data set.

For orientation: MRT last means a mean duration of stay, worked out from the concentration-time curve. What is called Cmax is the maximum level reached in the sampled fluid or tissue. As usually defined, the half-life is the time in which the quantity being followed falls by half. Read a high half-life as slow loss. In general, clearance refers to the volume of plasma or blood freed of the substance per unit of time. Lower therefore signals inefficient removal. Broadly, the AUC(0-t) is exposure summed from dosing to a finite time, without extrapolation to infinity. Low readings indicate less exposure, high ones more exposure. Broadly, the bioavailability is dose-corrected exposure relative to a reference, in per cent. Read a high bioavailability as much systemic uptake. For `C=C(C)C(=O)Nc1ccc(-c2c(-c3ccc(Oc4nccc(C)n4)c(F)c3)c3c(N)ncnc3n2C)cc1` [LIRAFUGRATINIB], the MRT last at 24 h in “in vivo [1]” worked out at 2 h; in “in vivo [5]” it was 0.23 h; in the data set “in vivo [11]” it was 0.87 h. Besides, the Cmax at 24 h in the data set “in vivo [2]” came to 5760 ng/mL; in “in vivo [6]”, 111 ng/mL; in “in vivo [12]”, 1360 ng/mL. For the same compound, the half-life at 24 h in the data set “in vivo [3]” is 2.4 h; in “in vivo [8]” it was 0.77 h; in the data set “in vivo [14]” it was 2.3 h. The clearance at 24 h was found to be 59.4 mL/min/kg in “in vivo [4]” and 24.9 mL/min/kg in “in vivo [10]”. The area under the curve AUC(0-t) at 24 h was 448 ng·h/mL in the data set “in vivo [7]” and 2680 ng·h/mL in “in vivo [13]”. In addition, the figures for the bioavailability at 24 h in the data set “in vivo [9]” and in “in vivo [15]” were 16% and 75.4%, respectively. Also, the mean residence time MRT last at 8 h in “in vivo [16]” amounted to 2.7 h. In the data set “in vivo [17]”, the peak level (Cmax at 8 h) was 3740 ng/mL. For the same compound, in “in vivo [18]”, the exposure AUC(0-t) at 8 h came out at 20000 ng·h/mL. The compound also registered a half-life in the data set “in vitro” above 4.82 h.

`C=C(CO)C(=O)Nc1ccc(-c2c(-c3ccc(Oc4nccc(C)n4)cc3)c(C(N)=O)c3cnc(C)cn23)cc1`: the results for the half-life in “physchem [19]” and in the data set “physchem [20]” were 0.8 h and 0.9 h, respectively.

For the compound `C=C(F)C(=O)Nc1ccc(-c2c(-c3ccc(Oc4nccc(C)n4)cc3)c(C(N)=O)c3cnc(C)cn23)c(F)c1`, in “in vivo [21]”, the clearance at 24 h is 29.1 mL/min/kg. Besides, in the data set “in vivo [22]”, the AUC(0-t) at 24 h is 2470 ng·h/mL. Moreover, in the data set “in vivo [23]”, the bioavailability at 24 h is 41.9%. The compound further returned a half-life in the data set “in vitro” above 4.82 h.

The record behind these values is ChEMBL document CHEMBL6096737, “Discovery of Pyrrolopyrazine Carboxamide Derivatives as Potent and Selective FGFR2/3 Inhibitors that Overcome Mutant Resistance” (J Med Chem, 2025).
